# Test results: patent publication US10105357B2, “Indication of antibiotic drugs for preparation of cancer inhibition pharmaceutical composition” (LAUNX BIOMEDICAL CO., LTD., priority 2014, dated 2018)
# Where a name gives a salt, the structure may show the parent alone. Read-outs that look alike come from different tables or passages of the source.
# Experiments:
# Format in all cases: cell-based, human
# [1] = tested on: cancer cell lines; experiment: Cell viability analysis (WST-1) on cancer cell lines; details: drug 10 μM, 72 hours; for inhibition effect on different cancer cell lines: WST-1, Table 3; for Inhibitory effect on cancer cell line: WST-1, OD450 nm, Table 2: drugs which do not have significant inhibitory effect
# [2] = tested on: HI650 (Lung Adenocarcinoma); experiment: Cell viability analysis, lung cancer HI650; details: for viability at 10 µM: Homo sapiens, NCI-H1650, 72 h, read-out: cell viability (survival rate), H1650, drug 10 μM, 72 hours, WST-1, OD450 nm; for cell viability (survival rate), H1650: drug 10 μM, 72 hours, WST-1, OD450 nm
# [3] = tested on: A549 (Lung Adenocarcinoma); experiment: Cell viability analysis, lung cancer A549; details: for viability at 10 µM: Homo sapiens, A549, 72 h, read-out: cell viability (survival rate), A549, drug 10 μM, 72 hours, WST-1, OD450 nm
# [4] = tested on: AGS (Gastric Adenocarcinoma); experiment: Cell viability analysis, gastric cancer AGS; details: for viability at 10 µM: Homo sapiens, 72 h, read-out: cell viability (survival rate), AGS, drug 10 μM, 72 hours, WST-1, OD450 nm; for cell viability (survival rate), AGS: drug 10 μM, 72 hours, WST-1, OD450 nm
# [5] = tested on: MKN-45 (Gastric Adenocarcinoma); experiment: Cell viability analysis, gastric cancer MKN-45; details: for viability at 10 µM: Homo sapiens, MKN-45, 72 h, read-out: cell viability (survival rate), MKN-45, drug 10 μM, 72 hours, WST-1, OD450 nm
# [6] = tested on: HepG2 (Hepatocellular Carcinoma); experiment: Cell viability analysis, hepatic cancer HepG2; details: for viability at 10 µM: Homo sapiens, HepG2, 72 h, read-out: cell viability (survival rate), HepG2, drug 10 μM, 72 hours, WST-1, OD450 nm
# [7] = tested on: LoVo (Colorectal Adenocarcinoma); experiment: Cell viability analysis, colon cancer LoVo; details: for viability at 10 µM: Homo sapiens, LoVo
# [8] = tested on: A375 (Amelanotic Melanoma); experiment: Cell viability analysis, skin cancer A375; details: for viability at 10 µM: Homo sapiens, A-375, 72 h, read-out: cell viability (survival rate), A375, drug 10 μM, 72 hours, WST-1, OD450 nm; for cell viability (survival rate), A375: drug 10 μM, 72 hours, WST-1, OD450 nm
# [9] = tested on: HeLa (Cervix Adenocarcinoma); experiment: Cell viability analysis, cervical cancer HeLa; details: for viability at 10 µM: Homo sapiens, HeLa, 72 h, read-out: cell viability (survival rate), HeLa, drug 10 μM, 72 hours, WST-1, OD450 nm; for cell viability (survival rate), HeLa: drug 10 μM, 72 hours, WST-1, OD450 nm
# [10] = tested on: TSGH-8301 (Urinary Bladder Carcinoma); experiment: Cell viability analysis, bladder cancer TSGH-8301; details: for viability at 10 µM: Homo sapiens, 72 h, read-out: cell viability (survival rate), TSGH, drug 10 μM, 72 hours, WST-1, OD450 nm
# [11] = tested on: MCF7 (Mammary Gland, Adenocarcinoma); experiment: Cell viability analysis, breast cancer MCF7; details: for viability at 10 µM: Homo sapiens, MCF7, 72 h, read-out: cell viability (survival rate), MCF7, drug 10 μM, 72 hours, WST-1, OD450 nm
# [12] = tested on: HL-60 (Acute Promyelocytic Leukemia); experiment: Cell viability analysis, leukemia HL-60; details: for viability at 10 µM: Homo sapiens, HL-60, 72 h, read-out: cell viability (survival rate), HL-60, drug 10 μM, 72 hours, WST-1, OD450 nm; for cell viability (survival rate), HL-60: drug 10 μM, 72 hours, WST-1, OD450 nm
# [13] = tested on: PC3 (p53−) (Prostate Adenocarcinoma); experiment: Cell viability analysis, prostate cancer PC3; details: 72 h
# [14] = 72 h, read-out: cell viability (survival rate), LoVo, drug 10 μM, 72 hours, WST-1, OD450 nm
# [15] = drug 10 μM, 72 hours, WST-1, OD450 nm
compound,measurement,setting,value
Clc1ccc(C(Cn2ccnc2)OCc2csc3c(Cl)cccc23)c(Cl)c1 (centres unmarked) [Sertaconazole nitrate],inhibition effect on different cancer cell lines,[1],significant inhibition effect
same,viability at 10 µM,[2],96.3%
same,viability at 10 µM,[3],75.4%
same,viability at 10 µM,[4],97.1%
same,viability at 10 µM,[5],69.5%
same,viability at 10 µM,[6],77.4%
same,viability at 10 µM,[7]; [14],94.9%
same,viability at 10 µM,[8],52%
same,viability at 10 µM,[9],58.9%
same,viability at 10 µM,[10],89.4%
same,viability at 10 µM,[11],76.4%
same,viability at 10 µM,[12],73.4%
CCN1CCN(C(=O)N[C@@H](C(=O)N[C@@H]2C(=O)N3[C@@H]2SC(C)(C)[C@@H]3C(=O)O)c2ccccc2)C(=O)C1=O [Piperacillin Sodium],inhibition effect on different cancer cell lines,[1],significant inhibition effect
same,viability at 10 µM,[2],71.6%
same,viability at 10 µM,[3],37.1%
same,viability at 10 µM,[4],98.3%
same,viability at 10 µM,[5],87.1%
same,viability at 10 µM,[6],96.3%
same,viability at 10 µM,[7]; [14],97.4%
same,viability at 10 µM,[8],67.9%
same,viability at 10 µM,[10],87.1%
same,viability at 10 µM,[11],52.3%
same,viability at 10 µM,[12],108%
Salbutamol sulfate [Salbutamol sulfate (Albuterol)],Inhibitory effect on cancer cell line,[1],0
same,inhibition effect on different cancer cell lines,[1],significant inhibition effect
same,"cell viability (survival rate), H1650",[2],84.3
same,"cell viability (survival rate), A549",[3]; [15],94.6
same,"cell viability (survival rate), AGS",[4],91.8
same,"cell viability (survival rate), MKN-45",[5]; [15],71.2
same,"cell viability (survival rate), LoVo",[7]; [15],97.1
same,"cell viability (survival rate), A375",[8],98.0
same,"cell viability (survival rate), HeLa",[9],99.9
same,"cell viability (survival rate), MCF7",[11]; [15],139.6
same,"cell viability (survival rate), HL-60",[12],104.1
C[C@@H](O)[C@H]1C(=O)N2C(C(=O)O)=C(S[C@@H]3CN[C@H](CNS(N)(=O)=O)C3)[C@H](C)[C@H]12 [Doripenem Hydrate],inhibition effect on different cancer cell lines,[1],significant inhibition effect
same,viability at 10 µM,[2],78.5%
same,viability at 10 µM,[3],70.9%
same,viability at 10 µM,[4],66.5%
same,viability at 10 µM,[5],111%
same,viability at 10 µM,[6],106%
same,viability at 10 µM,[7]; [14],95.2%
same,viability at 10 µM,[9],122%
same,viability at 10 µM,[10],79.9%
same,viability at 10 µM,[11],99.8%
same,viability at 10 µM,[12],91.2%
CN(C)CCC(c1ccc(Br)cc1)c1ccccn1 (centres unmarked) [Brompheniramine],inhibition effect on different cancer cell lines,[1],significant inhibition effect
same,viability at 10 µM,[2],83%
same,viability at 10 µM,[3],109%
same,viability at 10 µM,[4],121%
same,viability at 10 µM,[5],85.8%
same,viability at 10 µM,[6],95.7%
same,viability at 10 µM,[7]; [14],98.9%
same,viability at 10 µM,[9],111%
same,viability at 10 µM,[10],97.9%
same,viability at 10 µM,[11],75.8%
same,viability at 10 µM,[12],122%
Spiramycin,inhibition effect on different cancer cell lines,[1],significant inhibition effect
"CC1(C)[C@H](C(=O)[O-])N2C(=O)C[C@H]2S1(=O)=O.[Na+] [Sulbactam sodium (Unasyn), Sulbactam sodium]",inhibition effect on different cancer cell lines,[1],significant inhibition effect
Bismuth Subcitrate Potassium,Inhibitory effect on cancer cell line,[1],0
same,inhibition effect on different cancer cell lines,[1],significant inhibition effect
"Cc1nccn1CC1CCc2c(c3ccccc3n2C)C1=O (centres unmarked) [Ondansetron hydrochloride (Zofran), Ondansetron hydrochloride]",inhibition effect on different cancer cell lines,[1],significant inhibition effect
N[C@@H]1CONC1=O [D-Cycloserine],inhibition effect on different cancer cell lines,[1],significant inhibition effect
NCC[C@H](O)C(=O)N[C@@H]1C[C@H](N)[C@@H](O[C@H]2O[C@H](CN)[C@@H](O)[C@H](O)[C@H]2O)[C@H](O)[C@H]1O[C@H]1O[C@H](CO)[C@@H](O)[C@H](N)[C@H]1O.O=S(=O)(O)O.O=S(=O)(O)O [Amikacin sulfate],inhibition effect on different cancer cell lines,[1],significant inhibition effect
"O=C(O)CCCC[C@@H]1SC[C@@H]2NC(=O)N[C@@H]21 [Biotin (Vitamin B7), Biotin]",inhibition effect on different cancer cell lines,[1],significant inhibition effect
same,viability at 10 µM,[2],94.2%
same,viability at 10 µM,[3],86.4%
same,viability at 10 µM,[4],104%
same,viability at 10 µM,[5],85.1%
same,viability at 10 µM,[7]; [14],99.2%
same,viability at 10 µM,[8],71.3%
same,viability at 10 µM,[9],90.7%
same,viability at 10 µM,[10],93.5%
same,viability at 10 µM,[11],89.1%
same,viability at 10 µM,[12],85.2%
CO/N=C(\C(=O)N[C@@H]1C(=O)N2C(C(=O)O)=C(Cn3ccc(=N)n3CCO)CS[C@H]12)c1csc(N)n1.O=S(=O)(O)O [Cefoselis sulfate],Inhibitory effect on cancer cell line,[1],0
same,inhibition effect on different cancer cell lines,[1],significant inhibition effect
Dabigatran [BIBR-1048 (Dabigatran)],inhibition effect on different cancer cell lines,[1],significant inhibition effect
CCN[C@@H]1C[C@H](N)[C@@H](O[C@H]2OC(CN)=CC[C@H]2N)[C@H](O)[C@H]1O[C@H]1OC[C@](C)(O)[C@H](NC)[C@H]1O.CCN[C@@H]1C[C@H](N)[C@@H](O[C@H]2OC(CN)=CC[C@H]2N)[C@H](O)[C@H]1O[C@H]1OC[C@](C)(O)[C@H](NC)[C@H]1O.O=S(=O)(O)O.O=S(=O)(O)O.O=S(=O)(O)O.O=S(=O)(O)O.O=S(=O)(O)O [Netilmicin Sulfate],Inhibitory effect on cancer cell line,[1],0
same,inhibition effect on different cancer cell lines,[1],significant inhibition effect
Colistin Sulfate,inhibition effect on different cancer cell lines,[1],significant inhibition effect
same,"cell viability (survival rate), H1650",[2],62.2
same,"cell viability (survival rate), A549",[3]; [15],97.6
same,"cell viability (survival rate), AGS",[4],26.1
same,"cell viability (survival rate), HepG2",[6]; [15],77.7
same,"cell viability (survival rate), LoVo",[7]; [15],92.0
same,"cell viability (survival rate), A375",[8],36.1
same,"cell viability (survival rate), HeLa",[9],84.3
same,"cell viability (survival rate), TSGH",[10]; [15],36.2
same,"cell viability (survival rate), HL-60",[12],108.9
"CN(C/C=C/C#CC(C)(C)C)Cc1cccc2ccccc12 [Terbinafine hydrochloride (Lamisil), Terbinafine hydrochloride]",inhibition effect on different cancer cell lines,[1],significant inhibition effect
CC1(C)[C@H](C(=O)O)N2C(=O)C[C@H]2S1(=O)=O [Sulbactam],inhibition effect on different cancer cell lines,[1],significant inhibition effect
same,viability at 10 µM,"[7]; drug 10 μM, 72 hours, WST-1, OD450 nm, read-out: cell viability (survival rate), LoVo",81.7%
Cl.NC1CCN(c2c(F)cc3c(=O)c(C(=O)O)cn(C4CC4)c3c2Cl)C1 (centres unmarked) [Clinafoxacin HCl],inhibition effect on different cancer cell lines,[1],significant inhibition effect
"NC(=O)c1cnccn1 [Pyrazinamide (Pyrazinoic acid amide), Pyrazinamide]",inhibition effect on different cancer cell lines,[1],significant inhibition effect
"CC(C)CN(C[C@@H](O)[C@H](Cc1ccccc1)NC(=O)O[C@H]1CO[C@H]2OCC[C@H]21)S(=O)(=O)c1ccc(N)cc1.CCO [Darunavir Ethanolate (Prezista), Darunavir Ethanolate]",inhibition effect on different cancer cell lines,[1],significant inhibition effect
Meclocycline Sulfosalicylate,inhibition effect on different cancer cell lines,[1],significant inhibition effect
"Cc1cccn2c(=O)c(-c3nnn[nH]3)cnc12 [Pemirolast (BMY 26517) potassium, Pemirolast potassium]",inhibition effect on different cancer cell lines,[1],significant inhibition effect
same,viability at 10 µM,[2],81.8%
same,viability at 10 µM,[3],82.9%
same,viability at 10 µM,[4],69.4%
same,viability at 10 µM,[6],82.1%
same,viability at 10 µM,[7]; [14],107%
same,viability at 10 µM,[8],70.8%
same,viability at 10 µM,[9],88.4%
same,viability at 10 µM,"[13]; Homo sapiens, read-out: cell viability (survival rate), PC3, drug 10 μM, 72 hours, WST-1, OD450 nm",53.8%
same,viability at 10 µM,[10],93.7%
same,viability at 10 µM,[11],83.2%
CC1(C)S[C@@H]2[C@H](NC(=O)[C@H](N)c3ccccc3)C(=O)N2[C@H]1C(=O)O [Ampicillin sodium],inhibition effect on different cancer cell lines,[1],significant inhibition effect
same,viability at 10 µM,[2],53.5%
same,"cell viability (survival rate), A549","[3]; human, 72 h, 10 µM",102.6
same,viability at 10 µM,[4],105%
same,"cell viability (survival rate), MKN-45","[5]; human, 72 h, 10 µM",77.9
same,viability at 10 µM,[6],76.1%
same,viability at 10 µM,[7]; [14],88.9%
same,viability at 10 µM,[8],68.9%
same,viability at 10 µM,[9],75.2%
same,"cell viability (survival rate), PC3","[13]; human, 10 µM",98.1
same,viability at 10 µM,[10],72%
same,"cell viability (survival rate), MCF7","[11]; human, 72 h, 10 µM",99.1
